Test results as given in US20100119454A1, “Use of the conserved Drosophila NPFR1 system for uncovering interacting genes and pathways important in nociception and stress response” (priority 2008, published 2010).

Test system: Drosophila adult flies
Assay: Two-choice preference test of adult flies (BITC)
Type: in vivo, Drosophila melanogaster
Details: 0.4 mM BITC, 2-day old control flies
Method: The two-choice preference test was based on a published procedure with some modifications (Al-Anzi et al., 2006), which is hereby incorporated by reference herein in its entirety. 2-day-old males withheld from food for 24 hr were presented with a 48-well plate containing two-colored food media in the alternating well rows. They contain 1% agar/10% fructose with 0.4 mM benzyl-isothiocyanate (BITC) in 75% ethanol or ethanol only. In each assay, 90-100 flies per line were tested in the dark. A preference index was defined as the fraction of […] choosing the BITC medium, minus the fraction of […] choosing the BITC-free medium. […] At least three trials were done for each line.

S=C=NCc1ccccc1 [BITC, benzyl-isothiocyanate]
food choice of adult flies: mostly avoided
